The source of these data is patent US12187723B2 (BRISTOL-MYERS SQUIBB COMPANY, priority 2019, dated 2025).

Assay [1] concerns the target T1, human TLR7 (Homo sapiens, UniProt Q9NYK1).
T1 construct: host or cells: HEK-Blue cells
T1 sequence (Q9NYK1 27-1049): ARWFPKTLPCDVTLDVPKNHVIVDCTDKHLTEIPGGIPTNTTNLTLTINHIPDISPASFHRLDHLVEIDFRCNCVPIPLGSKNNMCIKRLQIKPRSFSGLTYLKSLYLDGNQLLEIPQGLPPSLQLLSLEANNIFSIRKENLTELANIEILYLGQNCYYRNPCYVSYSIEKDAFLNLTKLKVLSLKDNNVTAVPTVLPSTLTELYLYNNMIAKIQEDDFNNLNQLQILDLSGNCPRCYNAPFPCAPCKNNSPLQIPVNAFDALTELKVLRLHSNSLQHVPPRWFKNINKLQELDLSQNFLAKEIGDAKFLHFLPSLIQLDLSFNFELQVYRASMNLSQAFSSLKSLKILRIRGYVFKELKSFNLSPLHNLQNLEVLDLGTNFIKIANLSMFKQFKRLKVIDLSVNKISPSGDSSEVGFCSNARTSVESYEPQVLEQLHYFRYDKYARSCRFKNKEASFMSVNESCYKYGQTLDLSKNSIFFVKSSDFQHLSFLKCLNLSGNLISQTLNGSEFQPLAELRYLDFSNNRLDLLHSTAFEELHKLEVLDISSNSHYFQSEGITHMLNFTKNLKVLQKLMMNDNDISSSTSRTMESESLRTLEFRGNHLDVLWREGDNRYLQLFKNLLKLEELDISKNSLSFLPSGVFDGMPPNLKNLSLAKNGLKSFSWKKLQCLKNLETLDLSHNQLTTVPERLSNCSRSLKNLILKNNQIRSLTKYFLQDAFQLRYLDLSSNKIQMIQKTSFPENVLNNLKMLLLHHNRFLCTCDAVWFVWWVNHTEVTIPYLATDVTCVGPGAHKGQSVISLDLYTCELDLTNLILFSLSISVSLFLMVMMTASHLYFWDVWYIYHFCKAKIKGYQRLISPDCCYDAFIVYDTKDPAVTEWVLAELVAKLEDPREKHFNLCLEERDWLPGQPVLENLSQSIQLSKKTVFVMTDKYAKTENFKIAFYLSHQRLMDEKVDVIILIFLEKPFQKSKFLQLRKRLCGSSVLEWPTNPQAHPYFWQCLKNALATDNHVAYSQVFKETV
Put plainly: TLR7 inhibition reporter assay (HEK-Blue SEAP). The assay is classed as cell-based. Conditions: HEK-Blue cells overexpressing human TLR7, gardiquimod 7.5 μM, 22 hour incubation. In short, it runs like this: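 Dose-response testing from 0.05 nM to 50 μM final was done on reporter cells for 22 hours at 37° C. Secreted SEAP was then detected, and inhibition was calculated as percent reduction of the agonist-plus-DMSO signal compared with wells given a known inhibitor.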
In general terms: In a reporter assay the amount or activity of a reporter protein is the signal.

Assay [2] deals with T2, human TLR9 (Homo sapiens, UniProt Q9NR96).
T2 construct: host or cells: HEK-Blue cells
T2 sequence (Q9NR96 26-1032): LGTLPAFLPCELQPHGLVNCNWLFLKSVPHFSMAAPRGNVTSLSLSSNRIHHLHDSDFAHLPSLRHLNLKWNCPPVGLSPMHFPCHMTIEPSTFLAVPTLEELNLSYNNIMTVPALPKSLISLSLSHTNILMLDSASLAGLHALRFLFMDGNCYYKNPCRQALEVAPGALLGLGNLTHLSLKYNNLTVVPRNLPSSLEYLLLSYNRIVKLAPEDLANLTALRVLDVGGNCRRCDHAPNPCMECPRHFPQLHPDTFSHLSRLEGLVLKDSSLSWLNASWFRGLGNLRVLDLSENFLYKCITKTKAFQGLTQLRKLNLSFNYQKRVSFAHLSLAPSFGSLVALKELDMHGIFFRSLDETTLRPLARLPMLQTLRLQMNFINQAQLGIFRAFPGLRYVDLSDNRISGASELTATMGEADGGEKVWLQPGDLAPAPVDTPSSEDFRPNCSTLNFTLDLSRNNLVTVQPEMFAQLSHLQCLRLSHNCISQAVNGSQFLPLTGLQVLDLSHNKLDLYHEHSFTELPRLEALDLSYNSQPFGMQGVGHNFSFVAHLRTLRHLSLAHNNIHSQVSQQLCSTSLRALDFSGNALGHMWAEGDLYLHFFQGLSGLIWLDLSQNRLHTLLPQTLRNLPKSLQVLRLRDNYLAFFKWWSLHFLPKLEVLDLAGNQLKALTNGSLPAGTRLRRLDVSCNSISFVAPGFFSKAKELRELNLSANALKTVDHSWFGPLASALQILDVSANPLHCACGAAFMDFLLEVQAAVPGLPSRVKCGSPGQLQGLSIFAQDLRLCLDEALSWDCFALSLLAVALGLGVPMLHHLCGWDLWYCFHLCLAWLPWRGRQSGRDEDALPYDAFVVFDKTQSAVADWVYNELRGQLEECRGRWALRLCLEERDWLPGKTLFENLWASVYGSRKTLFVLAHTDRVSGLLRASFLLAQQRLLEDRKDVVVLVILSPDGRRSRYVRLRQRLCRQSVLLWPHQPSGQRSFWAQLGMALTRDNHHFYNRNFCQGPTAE
Put plainly: TLR9 inhibition reporter assay (HEK-Blue SEAP). The assay is classed as cell-based. Conditions: HEK-Blue cells overexpressing human TLR9, ODN2006 5 nM, 22 hour incubation. In short, it runs like this: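 Screening used HEK-Blue cells overexpressing one human TLR (7, 8 or 9) and an IFN-β minimal promoter–NF-κB/AP-1 SEAP construct. Stimulation lasted 22 h at 37 °C with receptor-specific agonist: gardiquimod, R848 or ODN2006 at 7.5 μM, 15.9 μM and 5 nM.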

Broadly, the IC50 is the point on the concentration scale where inhibition reaches its midpoint. Lower therefore signals greater potency in that assay.

As for `CCC(CC)CN1CCC[C@@H](n2c(=O)[nH]c3cc(-c4cc(OC)c5ncnn5c4)c(C(C)C)cc32)C1` [Example 148, (R)-1-(1-(2-ethylbutyl)piperidin-3-yl)-6-isopropyl-5-(8-methoxy-[1,2,4]triazolo[1,5-a]pyridin-6-yl)-1,3-dihydro-2H-benzo[d]imidazol-2-one], the IC50 in assay [1] was 0.49 nM; in assay [2], 9610 nM.

As to `COc1cc(-c2cc3[nH]c(=O)n([C@@H]4CCCN(CC5CCC5)C4)c3cc2C(C)C)cn2ncnc12` [Example 140, (R)-1-(1-(cyclobutylmethyl)piperidin-3-yl)-6-isopropyl-5-(8-methoxy-[1,2,4]triazolo[1,5-a]pyridin-6-yl)-1,3-dihydro-2H-benzo[d]imidazol-2-one], the IC50 was determined as 1.3 nM in assay [1] and 6460 nM in assay [2].

Consider `Cc1c(-c2cc3[nH]c(=O)n([C@@H]4CCCN(C)C4)c3cc2C(C)C)cn2ncnc2c1C` [Example 147, (R)-5-(7,8-dimethyl-[1,2,4]triazolo[1,5-a]pyridin-6-yl)-6-isopropyl-1-(1-methylpiperidin-3-yl)-1,3-dihydro-2H-benzo[d]imidazol-2-one], for which the IC50 in assay [1] is 66.9 nM; in assay [2] it was above 50000 nM.

Turning to `COc1cc(-c2cc3[nH]c(=O)n([C@@H]4CCCN(CC5CCOCC5)C4)c3cc2C(C)C)cn2ncnc12` [Example 139, (R)-6-isopropyl-5-(8-methoxy-[1,2,4]triazolo[1,5-a]pyridin-6-yl)-1-(1-((tetrahydro-2H-pyran-4-yl)methyl)piperidin-3-yl)-1,3-dihydro-2H-benzo[d]imidazol-2-one], the values for the IC50 in assay [1] and in assay [2] were 0.76 nM and 7810 nM, respectively.

`CCN1CCC[C@@H](n2c(=O)[nH]c3cc(-c4cc(OC)c5ncnn5c4)c(C(F)(F)F)cc32)C1` [Example 110, (R)-1-(1-ethylpiperidin-3-yl)-5-(8-methoxy-[1,2,4]triazolo[1,5-a]pyridin-6-yl)-6-(trifluoromethyl)-1,3-dihydro-2H-benzo[d]imidazol-2-one]: the IC50 in assay [1] turned out to be 16.8 nM; in assay [2] it was 7820 nM.

For the compound `Cc1cc2c(cc1-c1cc(C)c3ncnn3c1)[nH]c(=O)n2C1CCN(C)CC1` [Example 3, 6-methyl-5-(8-methyl-[1,2,4]triazolo[1,5-a]pyridin-6-yl)-1-(1-methylpiperidin-4-yl)-1,3-dihydro-2H-benzo[d]imidazol-2-one], the IC50 in assay [1] was determined as 30.5 nM; in assay [2], 4640 nM.

Take `COc1cc(-c2cc3[nH]c(=O)n([C@@H]4CCCN(C)C4)c3cc2C(C)C)cn2ncnc12` [Example 136, (R)-6-isopropyl-5-(8-methoxy-[1,2,4]triazolo[1,5-a]pyridin-6-yl)-1-(1-methylpiperidin-3-yl)-1,3-dihydro-2H-benzo[d]imidazol-2-one]: the results for the IC50 in assay [1] and in assay [2] were 2.18 nM and 14900 nM, respectively.

As for `CCN1CCC[C@@H](n2c(=O)[nH]c3cc(-c4cc(OC)c5ncnn5c4)c(C(C)C)cc32)C1` (single isomer, unassigned) [Example 144], the results for the IC50 in assay [1] and in assay [2] were 8.58 nM and 14100 nM, respectively.

For the compound `Cc1cc(-c2cc(C)c3ncnn3c2)cc2[nH]c(=O)n(C3CCN(C)CC3)c12` [Example 106, 7-methyl-5-(8-methyl-[1,2,4]triazolo[1,5-a]pyridin-6-yl)-1-(1-methylpiperidin-4-yl)-1,3-dihydro-2H-benzo[d]imidazol-2-one], the IC50 is 29.7 nM in assay [1] and 3740 nM in assay [2].

`CCCN1CCC[C@@H](n2c(=O)[nH]c3cc(-c4cn5ncnc5c(C)c4C)c(C(C)C)cc32)C1` [Example 150, (R)-5-(7,8-dimethyl-[1,2,4]triazolo[1,5-a]pyridin-6-yl)-6-isopropyl-1-(1-propylpiperidin-3-yl)-1,3-dihydro-2H-benzo[d]imidazol-2-one]: the IC50 in assay [1] is 5.52 nM; in assay [2], 11900 nM.

Regarding `CCCN(CCC)[C@H]1CC[C@@H](n2c(=O)[nH]c3cc(-c4cc(OC)c5ncnn5c4)c(CC)cc32)CC1` [Example 168, 1-((1s,4s)-4-(dipropylamino)cyclohexyl)-6-ethyl-5-(8-methoxy-[1,2,4]triazolo[1,5-a]pyridin-6-yl)-1,3-dihydro-2H-benzo[d]imidazol-2-one], the IC50 in assay [1] is 5.45 nM; in assay [2] it was 15200 nM.

As to `Cc1cc(-c2ccc3c(c2)[nH]c(=O)n3C2CCN(C(=O)CN(C)C)CC2)cn2ncnc12` [Example 102, 1-(1-(dimethylglycyl)piperidin-4-yl)-5-(8-methyl-[1,2,4]triazolo[1,5-a]pyridin-6-yl)-1,3-dihydro-2H-benzo[d]imidazol-2-one], the IC50 in assay [1] is above 3130 nM; in assay [2], 3210 nM.

For the compound `Cc1cc2c(cc1-c1cc(C)c3ncnn3c1)[nH]c(=O)n2[C@@H]1CCCN(CC(N)=O)C1` [Example 94, (R)-2-(3-(6-methyl-5-(8-methyl-[1,2,4]triazolo[1,5-a]pyridin-6-yl)-2-oxo-2,3-dihydro-1H-benzo[d]imidazol-1-yl)piperidin-1-yl)acetamide], the IC50 in assay [1] is 704 nM; in assay [2], above 50000 nM.

For `CCC(CC)CN1CCC[C@@H](n2c(=O)[nH]c3cc(-c4cn5ncnc5c(C)c4C)c(C(C)C)cc32)C1` [Example 151, (R)-5-(7,8-dimethyl-[1,2,4]triazolo[1,5-a]pyridin-6-yl)-1-(1-(2-ethylbutyl)piperidin-3-yl)-6-isopropyl-1,3-dihydro-2H-benzo[d]imidazol-2-one], the concentration for half-maximal inhibition (IC50) worked out at 11 nM in assay [1] and 17700 nM in assay [2].

As to `COc1cc(-c2cc3[nH]c(=O)n([C@H]4CCCN(CC5CC5)C4)c3cc2C(C)C)cn2ncnc12` (single isomer, unassigned) [Example 128], the IC50 was 44 nM in assay [1] and above 50000 nM in assay [2].

For the compound `Cc1cc2c(cc1-c1cc(C)c3ncnn3c1)[nH]c(=O)n2C1CCN(C(=O)CN(C)C)CC1` [Example 101, 1-(1-(dimethylglycyl)piperidin-4-yl)-6-methyl-5-(8-methyl-[1,2,4]triazolo[1,5-a]pyridin-6-yl)-1,3-dihydro-2H-benzo[d]imidazol-2-one], the IC50 in assay [1] came out at 173 nM; in assay [2], 2580 nM.

For `CCCN1CCC[C@@H](n2c(=O)[nH]c3cc(-c4cc(OC)c5ncnn5c4)c(C(C)C)cc32)C1` [Example 134, (R)-6-isopropyl-5-(8-methoxy-[1,2,4]triazolo[1,5-a]pyridin-6-yl)-1-(1-propylpiperidin-3-yl)-1,3-dihydro-2H-benzo[d]imidazol-2-one], the IC50 in assay [1] stood at 1.98 nM; in assay [2] it was 9330 nM.
